From the supplement of paper PMC4862054
Values joined by “and” are separate entries in the source; they are usually repeats but may differ in a detail not shown here. Equal values may be shown once.

How the values were obtained:
Details in all cases: incubation time: 72 h
BT-549 [1] = assay: drug sensitivity score (DSS), CellTox Green (DSS (AUC-based score)); higher = stronger drug effect (viability inhibition or cytotoxicity); extreme values may be limits of the assay
Summary of the method: (§1)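 The drug sensitivity score reflects the area under a fitted dose-response curve. To obtain it, breast cancer cells in 20 µl suspension were seeded into 384-well plates containing compound at 5 concentrations, 10-fold apart over a compound-specific 10,000-fold range, and incubated 72 h. CellTox Green fluorescence (485/520 nm) was read first and CellTiter-Glo luminescence second, after 10 min at room temperature. Each plate was normalised to 0.1 % DMSO and a positive kill control.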

CAL-120 [2] = assay: as above
Summary of the method: as §1

CAL-85-1 [3] = assay: as above
Summary of the method: as §1

HCC1143 [4] = assay: as above
Summary of the method: as §1

HCC1599 [5] = assay: as above
Summary of the method: as §1

HDQ-P1 [6] = assay: as above
Summary of the method: as §1

MCF-10A = assay: as above
Summary of the method: as §1

MFM-223 [7] = assay: as above
Summary of the method: as §1

BT-474 = assay: drug sensitivity score (DSS), CellTiter-Blue viability (DSS (AUC-based score)); higher = stronger viability inhibition; extreme values may be limits of the assay
Experimental: (§2)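 DSRT with the CellTiter-Blue (resazurin reduction) viability readout, fluorescence 560/590 nm, 72 h incubation. Plates were normalised to DMSO and benzethonium chloride controls. DSS is computed from the area under the fitted dose-response curve (5 or 9 concentrations).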

BT-549 [8] = assay: as above
Experimental: as §2

CAL-120 [9] = assay: as above
Experimental: as §2

CAL-148 = assay: as above
Experimental: as §2

CAL-51 = assay: as above
Experimental: as §2

CAL-85-1 [10] = assay: as above
Experimental: as §2

DU-4475 = assay: as above
Experimental: as §2

HCC1143 [11] = assay: as above
Experimental: as §2

HCC1599 [12] = assay: as above
Experimental: as §2

HCC1937 = assay: as above
Experimental: as §2

HDQ-P1 [13] = assay: as above
Experimental: as §2

Hs578T = assay: as above
Experimental: as §2

MDA-MB-231 = assay: as above
Experimental: as §2

MDA-MB-436 = assay: as above
Experimental: as §2

MDA-MB-453 = assay: as above
Experimental: as §2

MDA-MB-468 = assay: as above
Experimental: as §2

MFM-223 [14] = assay: as above
Experimental: as §2

SK-BR-3 = assay: as above
Experimental: as §2

| Compound | drug sensitivity score (BT-549 [1]) | drug sensitivity score (CAL-120 [2]) | drug sensitivity score (CAL-85-1 [3]) | drug sensitivity score (HCC1143 [4]) | drug sensitivity score (HCC1599 [5]) | drug sensitivity score (HDQ-P1 [6]) | drug sensitivity score (MCF-10A) | drug sensitivity score (MFM-223 [7]) | drug sensitivity score (BT-474) | drug sensitivity score (BT-549 [8]) | drug sensitivity score (CAL-120 [9]) | drug sensitivity score (CAL-148) | drug sensitivity score (CAL-51) | drug sensitivity score (CAL-85-1 [10]) | drug sensitivity score (DU-4475) | drug sensitivity score (HCC1143 [11]) | drug sensitivity score (HCC1599 [12]) | drug sensitivity score (HCC1937) | drug sensitivity score (HDQ-P1 [13]) | drug sensitivity score (Hs578T) | drug sensitivity score (MDA-MB-231) | drug sensitivity score (MDA-MB-436) | drug sensitivity score (MDA-MB-453) | drug sensitivity score (MDA-MB-468) | drug sensitivity score (MFM-223 [14]) | drug sensitivity score (SK-BR-3) |
| --- | --- | --- | --- | --- | --- | --- | --- | --- | --- | --- | --- | --- | --- | --- | --- | --- | --- | --- | --- | --- | --- | --- | --- | --- | --- | --- |
| CN(c1ccccc1CNc1nc(Nc2ccc3c(c2)CC(=O)N3)ncc1C(F)(F)F)S(C)(=O)=O | 0.974 | 0 | 3.86 | 5.18 | 1.23 | 9.69 | 9.63 | 0 | – | – | – | – | – | – | – | – | – | – | – | – | – | – | – | – | – | – |
| COc1ncc(-c2ccc3nccc(-c4ccnnc4)c3c2)cc1NS(=O)(=O)c1ccc(F)cc1F | 0 | 0 | 0 | 0 | 0 | 0 | 0.561 | 3.89 | 19.9 | 13.6 | 16.3 | 17.3 | 21.4 | 16.8 | 10.8 | 14.6 | 17 | 12.3 | 21.1 | 15.1 | 13.3 | 14.2 | 25.7 | 14.2 | 20.6 | 25 |
| C[C@@]1(C(=O)Nc2ccc(F)nc2)CCCN1c1nc(Nc2cc(C3CC3)n[nH]2)c2cccn2n1 | 0 | 3.17 | 0 | 9.05 | 0 | 4.62 | 6.69 | 3.84 | 0 | 6.82 | 8.33 | 6.09 | 9.17 | 10.6 | 9.27 | 9.58 | 11.5 | 6.32 | 16 | 5.68 | 11 | 2.82 | 5.98 | 7.88 | 10.1 | 5.88 |
| Nc1nccc(-c2c(-c3ccc(F)cc3)ncn2C2CCCCC2)n1 | 0 | 0 | 0 | 0 | 0 | 0 | 3.55 | 0 | – | – | – | – | – | – | – | – | – | – | – | – | – | – | – | – | – | – |
| COc1c(C)cnc(Cn2cnc3c(Cl)nc(N)nc32)c1C [BIIB021] | 0 | 0 | 6.72 | 0 | 0 | 3.67 | 15.3 | 0 | 18.8 | 18.8 | 23.5 | 19.3 | 15.5 | 13.6 | 22 | 17 | 8.11 | 19.4 | 12.8 | 12.9 | 15.8 | 11.9 | 24.8 | 14.4 | 18.6 | 26.8 |
| CC(C)C[C@H](NC(=O)[C@H](Cc1ccccc1)NC(=O)c1cnccn1)B(O)O [Bortezomib] | 6.42 | 13.6 | 27.8 | 6.67 | 0 | 20.1 | 7.83 | 12.5 | 18.8 | 24.3 | 26.4 | 17.9 | 16.8 | 24.8 | 20.9 | 21.6 | 7.18 | 27.3 | 27.7 | 19.7 | 28.8 | 16.2 | 22.7 | 29.8 | 22.5 | 25.5 |
| CS(=O)(=O)OCCCCOS(C)(=O)=O [Busulfan] | 0 | 0 | 0 | 0 | 0 | 2.69 | 0 | 0 | 0 | 0 | 0 | 0 | 0 | 0 | 0 | 0 | 0 | 2.62 | 0 | 0 | 0 | 0 | 0 | 0 | 0 | 0 |
| C#Cc1cccc(Nc2ncnc3cc(OC)c(OCCCCCCC(=O)NO)cc23)c1 [CUDC-101] | 0 | 3.78 | 20.1 | 0 | 0 | 0 | 1.27 | 5.86 | 14.8 | 8.79 | 11.8 | 12.2 | 4.16 | 15 | 10.6 | 12.4 | 15.3 | 11.3 | 14.7 | 15.6 | 12 | 10.6 | 19.9 | 18 | 15.6 | 18.6 |
| COc1cccc2c1C(=O)c1c(O)c3c(c(O)c1C2=O)C[C@@](O)(C(C)=O)C[C@@H]3O[C@H]1C[C@H](N)[C@H](O)[C@H](C)O1 [Daunorubicin] | 0 | 0 | 0 | 0 | 0 | 0 | 0 | 0 | 7.7 | 9.47 | 13.1 | 13 | 13.7 | 5.47 | 14 | 10.9 | 1.88 | 14.9 | 5.31 | 9.16 | 13.5 | 10.8 | 3.7 | 11.1 | 2.14 | 13.1 |
| O=c1[nH]c(=O)n([C@H]2C[C@H](O)[C@@H](CO)O2)cc1F [Floxuridine] | 0 | 0 | 4.11 | 0 | 0 | 1.01 | 0 | – | 0 | 6.97 | 19.1 | 18.3 | 21.3 | 14 | 0 | 3.31 | 0.768 | 3.61 | 0 | 9.02 | 8.09 | 10.6 | 4.36 | 17.8 | 0 | 17.9 |
| O=P(O)(NCCCl)NCCCl [Ifosfamide mustard] | – | – | – | – | – | – | – | – | 0 | 0 | 0 | 0 | 0 | 0 | 0 | 0 | 0 | 0 | 0 | 0 | 0 | 0 | 0 | 0 | 0 | 0 |
| CS(=O)(=O)CCNCc1ccc(-c2ccc3ncnc(Nc4ccc(OCc5cccc(F)c5)c(Cl)c4)c3c2)o1 [Lapatinib] | 0 | 0 | 0 | 0 | 0 | 0 | 2.1 | 0 | 17.2 and 17.8 | 3.9 and 2.66 | – | 3.64 and 1.81 | 0 | 6.56 and 6.25 | 0 | 0 | – | – | 0 | 3.66 and 4.18 | – | 4.07 and 1.46 | 17.8 and 17 | 8.9 and 8.18 | – | 25.7 and 24.2 |
| COc1cc(Nc2ncc(F)c(Nc3ccc4c(n3)NC(=O)C(C)(C)O4)n2)cc(OC)c1OC [R406] | – | – | – | – | – | – | – | – | 0 | 5.38 | 0 | 0 | 0 | 0 | 0 | 0 | 0 | 0 | 0 | 0 | 5.44 | 0 | 0 | 0 | 0 | 0 |
| Cc1cc(C(C)Nc2ccccc2)c2nc(N3CCOCC3)cc(=O)n2c1 (stereo not given) [TGX-221] | 0 | 0 | 0 | 0 | 0 | 11.9 | 1.09 | 0 | – | – | – | – | – | – | – | – | – | – | – | – | – | – | – | – | – | – |
| COc1cc(Nc2ncc(F)c(Nc3ccc4c(n3)NC(=O)C(C)(C)O4)n2)cc(OC)c1OC [Tamatinib] | 0 | 0 | 0 | 0 | 0 | 0 | 0 | 0 | – | – | – | – | – | – | – | – | – | – | – | – | – | – | – | – | – | – |
| c1ccc(C2CN3CCSC3=N2)cc1 (stereo not given) [Tetramisole] | – | – | – | – | – | – | – | – | 0 | 0 | 0 | 0 | 0 | 0 | 0 | 0 | 0 | 0 | 0 | 0 | 0 | 0 | 0 | 0 | 0 | 0 |
| C[C@@H]1CCN(C(=O)CC#N)C[C@@H]1N(C)c1ncnc2[nH]ccc12 [Tofacitinib] | 0 | 0 | 0 | 0 | 0 | 0 | 0 | 0 | – | – | – | – | – | – | – | – | – | – | – | – | – | – | – | – | – | – |
| FC(F)c1nc2ccccc2n1-c1nc(N2CCOCC2)nc(N2CCOCC2)n1 [ZSTK474] | 0 | 0 | 0 | 0 | 0 | 0 | 0 | 3.44 | – | – | – | – | – | – | – | – | – | – | – | – | – | – | – | – | – | – |
